The values that follow come from patent US20200361871A1 (Enterprise Therapeutics Ltd., priority 2018, published 2020).

In general, EC50 refers to the concentration needed to bring the measured effect to its halfway point.

SMILES strings stand for the structures.

For this test, the target named is human TMEM16A (TMEM16Aabc variant) (Homo sapiens, UniProt Q5XXA6, DEL476-501, form not given). The test is described as follows: Automated whole-cell patch clamp (Qpatch) TMEM16A potentiator assay in FRT cells stably expressing human TMEM16A. The class given is cell-based. To be noted: for % Potentiation @ 3.33 μM Avg: 3.33 μM solution of test compound, percentage increase of baseline TMEM16A current; for EC50: calculated EC50, Qpatch TMEM16A current at +70 mV. Summed up:
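Potentiation was read as the rise in peak +70 mV current over baseline (%), from cumulative 5-min additions of compound. Recordings used whole-cell automated patch of FRT cells stably carrying human TMEM16Aabc, with pipette Ca2+ buffered to give ~20% maximal current. EC50 and efficacy came from concentration-response fits.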

human TMEM16A (TMEM16Aabc variant), sequence (Q5XXA6 with tags, fused parts or gaps DEL476-501): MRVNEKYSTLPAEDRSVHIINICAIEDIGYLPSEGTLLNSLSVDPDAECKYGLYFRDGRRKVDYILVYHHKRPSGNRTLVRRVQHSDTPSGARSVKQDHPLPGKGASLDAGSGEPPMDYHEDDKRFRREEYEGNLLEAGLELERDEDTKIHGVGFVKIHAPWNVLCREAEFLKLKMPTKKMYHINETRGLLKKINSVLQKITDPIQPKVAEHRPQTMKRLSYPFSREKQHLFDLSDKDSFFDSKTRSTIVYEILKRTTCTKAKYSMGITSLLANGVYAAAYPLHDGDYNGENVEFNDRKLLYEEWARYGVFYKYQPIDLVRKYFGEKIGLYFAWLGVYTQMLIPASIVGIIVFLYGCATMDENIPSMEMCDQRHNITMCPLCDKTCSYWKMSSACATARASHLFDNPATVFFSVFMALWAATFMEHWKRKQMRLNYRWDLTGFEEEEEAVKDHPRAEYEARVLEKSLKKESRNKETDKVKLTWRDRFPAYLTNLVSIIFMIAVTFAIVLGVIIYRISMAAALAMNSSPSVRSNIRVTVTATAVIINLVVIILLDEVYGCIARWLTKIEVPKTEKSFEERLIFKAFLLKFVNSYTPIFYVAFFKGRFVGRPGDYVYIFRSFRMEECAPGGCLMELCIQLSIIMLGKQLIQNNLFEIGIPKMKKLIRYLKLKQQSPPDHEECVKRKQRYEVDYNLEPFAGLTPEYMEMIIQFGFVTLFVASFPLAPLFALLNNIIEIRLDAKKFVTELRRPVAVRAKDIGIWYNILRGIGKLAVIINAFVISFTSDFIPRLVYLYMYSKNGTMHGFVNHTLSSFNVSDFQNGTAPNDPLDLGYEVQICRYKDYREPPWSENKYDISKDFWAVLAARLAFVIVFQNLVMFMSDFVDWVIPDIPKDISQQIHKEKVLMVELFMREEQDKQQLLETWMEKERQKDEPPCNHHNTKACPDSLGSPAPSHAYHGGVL

On to `CC1(NC(=O)c2cc(NC(=O)Cc3cc(Cl)ccc3O)ccn2)CCCC1` [Example 38, 4-[[2-(5-Chloro-2-hydroxy-phenyl)acetyl]amino]-N-(1-methylcyclopentyl)pyridine-2-carboxamide], for which the “% Potentiation @ 3.33 μM Avg” value is listed as 307% and the EC50 is 50 nM.

For the compound `CC(C)(C)C1CCC(NC(=O)c2cc(NC(=O)Cc3cc(Cl)ccc3O)ccn2)CC1` (stereo not shown) [Example 39, N-(4-tert-Butylcyclohexyl)-4-[[2-(5-chloro-2-hydroxy-phenyl)acetyl]amino]pyridine-2-carboxamide], the “% Potentiation @ 3.33 μM Avg” value is 262% and the EC50 was 60 nM.

Consider `CC(C)(C)NC(=O)c1cc(NC(=O)Cc2cccc(F)c2Cl)ccn1` [Example 40, N-tert-Butyl-4-[[2-(2-chloro-3-fluoro-phenyl)acetyl]amino] pyridine-2-carboxamide], for which the “% Potentiation @ 3.33 μM Avg” value came to 153% and the EC50 is 700 nM.

As for `CC(C)(C)NC(=O)c1cc(NC(=O)Cc2cc(F)ccc2Cl)ccn1` [Example 40.1, N-tert-Butyl-4-[[2-(2-chloro-5-fluoro-phenyl)acetyl]amino] pyridine-2-carboxamide], the “% Potentiation @ 3.33 μM Avg” value is 91% and the EC50 is 870 nM.

With `N#CC1(NC(=O)c2cccc(NC(=O)Cc3cc(F)ccc3O)c2)CCOCC1` [Example 41, N-(4-Cyanotetrahydropyran-4-yl)-3-[[2-(5-fluoro-2-hydroxy-phenyl)acetyl]amino] benzamide], the “% Potentiation @ 3.33 μM Avg” value is listed as 38%.

For `O=C(Cc1cc(Cl)ccc1O)Nc1ccnc(C(=O)NC2(CCO)CCOCC2)c1` [Example 42, 4-[[2-(5-Chloro-2-hydroxy-phenyl)acetyl]amino]-N-[4-(2-hydroxyethyl)tetrahydropyran-4-yl]pyridine-2-carboxamide], the “% Potentiation @ 3.33 μM Avg” value was 143% and the EC50 was 760 nM.

With `CC(C)(CCNCC(F)(F)F)NC(=O)c1cc(NC(=O)Cc2cc(Cl)ccc2O)ccn1` [Example 43, 4-[[2-(5-Chloro-2-hydroxy-phenyl)acetyl]amino]-N-[1,1-dimethyl-3-(2,2,2-trifluoroethylamino)propyl]pyridine-2-carboxamide], the “% Potentiation @ 3.33 μM Avg” value amounted to 174% and the EC50 is 700 nM.

For the compound `O=C(Cc1cc(Cl)ccc1O)Nc1ccnc(C(=O)NC23CCC(F)(C2)C3)c1` [Example 44, 4-[[2-(5-Chloro-2-hydroxy-phenyl)acetyl]amino]-N-(4-fluoro-1-bicyclo[2.1.1]hexanyl)pyridine-2-carboxamide], the “% Potentiation @ 3.33 μM Avg” value is 377% and the EC50 was 50 nM.

Regarding `CC(C)(CCNC(=O)C(C)(C)C)NC(=O)c1cc(NC(=O)Cc2cc(Cl)ccc2O)ccn1` [Example 45, 4-[[2-(5-Chloro-2-hydroxy-phenyl)acetyl]amino]-N-[3-(2,2-dimethylpropanoylamino)-1,1-dimethyl-propyl]pyridine-2-carboxamide], the “% Potentiation @ 3.33 μM Avg” value is 151%.

Take `N#CC1(NC(=O)c2cc(NC(=O)Cc3cc(Cl)ccc3O)ccn2)CCOC1` (stereo not shown) [Example 47, 4-[[2-(5-Chloro-2-hydroxy-phenyl)acetyl]amino]-N-(3-cyanotetrahydrofuran-3-yl)pyridine-2-carboxamide]: the “% Potentiation @ 3.33 μM Avg” value was 237% and the EC50 is 180 nM.

Turning to `COC(=O)CC1(NC(=O)c2cc(NC(=O)Cc3cc(Cl)ccc3O)ccn2)CCOCC1` [Example 47.1, Methyl2-[4-[[4-[[2-(5-chloro-2-hydroxy-phenyl)acetyl]amino]pyridine-2-carbonyl]amino]tetrahydropyran-4-yl]acetate], the “% Potentiation @ 3.33 μM Avg” value was determined as 156% and the EC50 was 1920 nM.

`COC(=O)C1(NC(=O)c2cc(NC(=O)Cc3cc(Cl)ccc3O)ccn2)CCOCC1` [Example 47.2, Methyl 4-[[4-[[2-(5-chloro-2-hydroxy-phenyl)acetyl]amino]pyridine-2-carbonyl]amino]tetrahydropyran-4-carboxylate]: the “% Potentiation @ 3.33 μM Avg” value is given as 212% and the EC50 is 230 nM.
